{
  "source": "ChEMBL document CHEMBL4804286",
  "about": "“3-amino-4-(4-(4 (dimethylcarbamoyl) phenyl)-1,4-diazepan-1-yl) thieno [2,3-b] pyridine-2-carboxamide for use in cancer therapy and formulations comprising the same” (2020)",
  "key": {"[1]": {"biological_target": "Serine/threonine-protein kinase 17B (Homo sapiens) (UniProt O94768)", "sequence (O94768 whole entry)": "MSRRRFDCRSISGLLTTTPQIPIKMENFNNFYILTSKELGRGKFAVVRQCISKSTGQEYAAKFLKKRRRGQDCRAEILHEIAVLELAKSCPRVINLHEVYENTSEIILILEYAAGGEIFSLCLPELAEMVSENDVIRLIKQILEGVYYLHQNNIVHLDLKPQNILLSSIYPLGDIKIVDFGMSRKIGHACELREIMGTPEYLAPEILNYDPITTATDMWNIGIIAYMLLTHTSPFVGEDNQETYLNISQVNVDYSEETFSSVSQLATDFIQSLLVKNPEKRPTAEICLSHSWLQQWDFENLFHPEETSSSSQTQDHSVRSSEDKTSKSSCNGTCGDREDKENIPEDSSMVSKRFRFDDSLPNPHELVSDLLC", "experiment": "Inhibition of human DRAK2 assessed as percent of control at 2000 nM by KINOMEscan assay relative to control", "design": "scale not given: the % may be the effect or the level left"}, "[2]": {"test_system": "Mast/stem cell growth factor receptor Kit (Homo sapiens), P10721 [V559D,V654A]", "experiment": "Inhibition of human KIT V559D/V654A double mutant assessed as percent of control at 2000 nM by KINOMEscan assay relative to control", "design": "scale not given: the % may be the effect or the level left"}, "[3]": {"biological_target": "Ephrin type-B receptor 4 (Homo sapiens) (UniProt P54760)", "experiment": "Inhibition of human EPHB4 assessed as percent of control at 2000 nM by KINOMEscan assay relative to control", "design": "scale not given: the % may be the effect or the level left"}, "[4]": {"test_system": "Phosphatidylinositol 4,5-bisphosphate 3-kinase catalytic subunit alpha isoform (Homo sapiens), P42336 [M1043I]", "experiment": "Inhibition of human PIK3CA M1043I mutant assessed as percent of control at 2000 nM by KINOMEscan assay relative to control", "design": "scale not given: the % may be the effect or the level left"}, "[5]": {"biological_target": "Myotonin-protein kinase (Homo sapiens) (UniProt Q09013)", "experiment": "Inhibition of human DMPK assessed as percent of control at 2000 nM by KINOMEscan assay relative to control", "design": "scale not given: the % may be the effect or the level left"}, "[6]": {"biological_target": "Proto-oncogene tyrosine-protein kinase ROS (Homo sapiens) (UniProt P08922)", "experiment": "Inhibition of human ROS1 assessed as percent of control at 2000 nM by KINOMEscan assay relative to control", "design": "scale not given: the % may be the effect or the level left"}, "[7]": {"biological_target": "Protein kinase C theta type (Homo sapiens) (UniProt Q04759)", "experiment": "Inhibition of human PRKCQ assessed as percent of control at 2000 nM by KINOMEscan assay relative to control", "design": "scale not given: the % may be the effect or the level left"}, "[8]": {"biological_target": "Serine/threonine-protein kinase Nek1 (Homo sapiens) (UniProt Q96PY6)", "experiment": "Inhibition of human NEK1 assessed as percent of control at 2000 nM by KINOMEscan assay relative to control", "design": "scale not given: the % may be the effect or the level left"}, "[9]": {"biological_target": "Serine/threonine-protein kinase pim-1 (Homo sapiens) (UniProt P11309)", "sequence (P11309 whole entry, looked up)": "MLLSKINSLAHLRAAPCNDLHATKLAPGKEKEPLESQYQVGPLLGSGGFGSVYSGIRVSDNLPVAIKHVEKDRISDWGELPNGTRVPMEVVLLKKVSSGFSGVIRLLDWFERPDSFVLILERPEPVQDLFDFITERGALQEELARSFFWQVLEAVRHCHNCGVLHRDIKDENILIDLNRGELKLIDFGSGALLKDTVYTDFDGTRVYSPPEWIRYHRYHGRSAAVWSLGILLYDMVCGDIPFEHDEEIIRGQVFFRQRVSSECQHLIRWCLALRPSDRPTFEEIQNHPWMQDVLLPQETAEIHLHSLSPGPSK", "experiment": "Inhibition of human PIM1 assessed as percent of control at 2000 nM by KINOMEscan assay relative to control", "design": "scale not given: the % may be the effect or the level left"}, "[10]": {"biological_target": "Serine/threonine-protein kinase RIO1 (Homo sapiens) (UniProt Q9BRS2)", "sequence (Q9BRS2 whole entry)": "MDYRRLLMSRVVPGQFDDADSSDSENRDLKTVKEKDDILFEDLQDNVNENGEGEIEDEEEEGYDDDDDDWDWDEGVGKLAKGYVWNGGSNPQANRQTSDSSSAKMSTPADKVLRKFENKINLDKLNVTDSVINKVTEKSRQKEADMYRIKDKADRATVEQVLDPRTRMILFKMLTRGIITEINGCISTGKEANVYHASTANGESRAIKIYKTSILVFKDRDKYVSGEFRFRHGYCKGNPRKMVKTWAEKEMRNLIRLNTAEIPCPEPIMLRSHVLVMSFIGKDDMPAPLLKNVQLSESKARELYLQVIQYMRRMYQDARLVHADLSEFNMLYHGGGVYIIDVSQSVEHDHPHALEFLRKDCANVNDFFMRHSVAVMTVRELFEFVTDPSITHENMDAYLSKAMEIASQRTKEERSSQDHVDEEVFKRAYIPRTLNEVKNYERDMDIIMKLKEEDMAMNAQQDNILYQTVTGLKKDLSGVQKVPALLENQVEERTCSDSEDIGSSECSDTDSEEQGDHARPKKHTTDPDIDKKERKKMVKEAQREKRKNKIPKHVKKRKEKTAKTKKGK", "experiment": "Inhibition of human RIOK1 assessed as percent of control at 2000 nM by KINOMEscan assay relative to control", "design": "scale not given: the % may be the effect or the level left"}, "[11]": {"biological_target": "Serine/threonine-protein kinase 10 (Homo sapiens) (UniProt O94804)", "experiment": "Inhibition of human LOK assessed as percent of control at 2000 nM by KINOMEscan assay relative to control", "design": "scale not given: the % may be the effect or the level left"}, "[12]": {"biological_target": "Mitogen-activated protein kinase kinase kinase kinase 5 (Homo sapiens) (UniProt Q9Y4K4)", "experiment": "Inhibition of human MAP4K5 assessed as percent of control at 2000 nM by KINOMEscan assay relative to control", "design": "scale not given: the % may be the effect or the level left"}, "[13]": {"biological_target": "RAC-gamma serine/threonine-protein kinase (Homo sapiens) (UniProt Q9Y243)", "sequence (Q9Y243 whole entry)": "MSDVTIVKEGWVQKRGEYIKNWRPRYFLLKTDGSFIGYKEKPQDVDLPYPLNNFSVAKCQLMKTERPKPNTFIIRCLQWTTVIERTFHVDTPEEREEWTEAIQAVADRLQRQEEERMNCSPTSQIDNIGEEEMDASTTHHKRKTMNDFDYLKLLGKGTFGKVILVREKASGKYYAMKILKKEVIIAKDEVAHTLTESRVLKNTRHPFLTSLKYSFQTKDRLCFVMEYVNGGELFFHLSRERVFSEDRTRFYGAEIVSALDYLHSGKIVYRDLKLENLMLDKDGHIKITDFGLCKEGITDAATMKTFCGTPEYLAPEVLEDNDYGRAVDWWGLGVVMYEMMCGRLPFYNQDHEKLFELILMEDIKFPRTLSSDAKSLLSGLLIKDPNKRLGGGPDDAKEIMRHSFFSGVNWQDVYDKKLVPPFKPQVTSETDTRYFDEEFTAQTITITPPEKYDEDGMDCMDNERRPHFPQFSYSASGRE", "experiment": "Inhibition of human AKT3 assessed as percent of control at 2000 nM by KINOMEscan assay relative to control", "design": "scale not given: the % may be the effect or the level left"}, "[14]": {"biological_target": "Serine/threonine-protein kinase ULK3 (Homo sapiens) (UniProt Q6PHR2)", "experiment": "Inhibition of human ULK3 assessed as percent of control at 2000 nM by KINOMEscan assay relative to control", "design": "scale not given: the % may be the effect or the level left"}, "[15]": {"biological_target": "Tyrosine-protein kinase TXK (Homo sapiens) (UniProt P42681)", "sequence (P42681 whole entry)": "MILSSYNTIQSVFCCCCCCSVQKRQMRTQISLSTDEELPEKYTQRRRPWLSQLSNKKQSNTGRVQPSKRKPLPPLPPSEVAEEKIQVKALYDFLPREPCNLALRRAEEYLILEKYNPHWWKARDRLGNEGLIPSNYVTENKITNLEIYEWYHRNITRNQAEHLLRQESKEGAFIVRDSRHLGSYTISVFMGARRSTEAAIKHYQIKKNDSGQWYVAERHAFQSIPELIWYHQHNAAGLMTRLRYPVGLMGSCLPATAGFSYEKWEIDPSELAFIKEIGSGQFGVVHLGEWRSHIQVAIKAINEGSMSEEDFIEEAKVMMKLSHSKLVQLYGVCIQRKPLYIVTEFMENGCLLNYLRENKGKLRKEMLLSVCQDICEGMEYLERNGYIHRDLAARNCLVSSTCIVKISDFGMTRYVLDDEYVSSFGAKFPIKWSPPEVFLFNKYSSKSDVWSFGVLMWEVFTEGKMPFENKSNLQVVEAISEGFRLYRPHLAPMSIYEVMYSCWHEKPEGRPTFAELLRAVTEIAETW", "experiment": "Inhibition of human TXK assessed as percent of control at 2000 nM by KINOMEscan assay relative to control", "design": "scale not given: the % may be the effect or the level left"}, "[16]": {"biological_target": "Mitogen-activated protein kinase 6 (Homo sapiens) (UniProt Q16659)", "experiment": "Inhibition of human ERK3 assessed as percent of control at 2000 nM by KINOMEscan assay relative to control", "design": "scale not given: the % may be the effect or the level left"}, "[17]": {"test_system": "Receptor-type tyrosine-protein kinase FLT3 (Homo sapiens), P36888 [K663Q]", "experiment": "Inhibition of human FLT3 K663Q mutant assessed as percent of control at 2000 nM by KINOMEscan assay relative to control", "design": "scale not given: the % may be the effect or the level left"}, "[18]": {"biological_target": "Cyclin-dependent kinase 2 homolog (Plasmodium falciparum (isolate K1 / Thailand)) (UniProt Q07785)", "experiment": "Inhibition of Plasmodium falciparum PFPK5 assessed as percent of control at 2000 nM by KINOMEscan assay relative to control", "design": "scale not given: the % may be the effect or the level left"}, "[19]": {"biological_target": "Serine/threonine-protein kinase tousled-like 1 (Homo sapiens) (UniProt Q9UKI8)", "sequence (Q9UKI8 whole entry)": "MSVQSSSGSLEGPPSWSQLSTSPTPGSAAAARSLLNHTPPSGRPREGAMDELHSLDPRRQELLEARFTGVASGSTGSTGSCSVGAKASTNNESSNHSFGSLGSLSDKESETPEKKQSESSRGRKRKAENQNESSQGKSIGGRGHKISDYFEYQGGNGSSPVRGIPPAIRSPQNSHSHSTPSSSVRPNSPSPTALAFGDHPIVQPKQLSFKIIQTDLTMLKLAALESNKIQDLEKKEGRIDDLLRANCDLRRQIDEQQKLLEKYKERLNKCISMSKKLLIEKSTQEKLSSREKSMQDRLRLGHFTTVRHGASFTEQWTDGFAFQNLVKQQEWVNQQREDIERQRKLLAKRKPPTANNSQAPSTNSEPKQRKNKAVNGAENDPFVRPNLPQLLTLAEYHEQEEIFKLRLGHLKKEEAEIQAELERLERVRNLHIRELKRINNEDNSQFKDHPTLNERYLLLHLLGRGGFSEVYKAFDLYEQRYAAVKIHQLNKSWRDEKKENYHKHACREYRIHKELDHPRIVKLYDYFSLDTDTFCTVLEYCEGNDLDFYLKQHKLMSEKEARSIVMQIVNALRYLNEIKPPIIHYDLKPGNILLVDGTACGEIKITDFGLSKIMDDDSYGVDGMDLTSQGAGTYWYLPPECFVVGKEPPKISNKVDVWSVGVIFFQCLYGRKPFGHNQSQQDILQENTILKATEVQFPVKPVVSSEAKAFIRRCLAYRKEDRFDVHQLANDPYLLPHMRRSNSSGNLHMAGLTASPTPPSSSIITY", "experiment": "Inhibition of human TLK1 assessed as percent of control at 2000 nM by KINOMEscan assay relative to control", "design": "scale not given: the % may be the effect or the level left"}, "[20]": {"biological_target": "Serine/threonine-protein kinase B-raf (Homo sapiens) (UniProt P15056)", "experiment": "Inhibition of human BRAF assessed as percent of control at 2000 nM by KINOMEscan assay relative to control", "design": "scale not given: the % may be the effect or the level left"}, "[21]": {"biological_target": "5'-AMP-activated protein kinase catalytic subunit alpha-2 (Homo sapiens) (UniProt P54646)", "experiment": "Inhibition of human AMPK-alpha2 assessed as percent of control at 2000 nM by KINOMEscan assay relative to control", "design": "scale not given: the % may be the effect or the level left"}, "[22]": {"biological_target": "Serine/threonine-protein kinase Nek9 (Homo sapiens) (UniProt Q8TD19)", "experiment": "Inhibition of human NEK9 assessed as percent of control at 2000 nM by KINOMEscan assay relative to control", "design": "scale not given: the % may be the effect or the level left"}, "[23]": {"biological_target": "Casein kinase I isoform gamma-2 (Homo sapiens) (UniProt P78368)", "sequence (P78368 whole entry, looked up, canonical isoform)": "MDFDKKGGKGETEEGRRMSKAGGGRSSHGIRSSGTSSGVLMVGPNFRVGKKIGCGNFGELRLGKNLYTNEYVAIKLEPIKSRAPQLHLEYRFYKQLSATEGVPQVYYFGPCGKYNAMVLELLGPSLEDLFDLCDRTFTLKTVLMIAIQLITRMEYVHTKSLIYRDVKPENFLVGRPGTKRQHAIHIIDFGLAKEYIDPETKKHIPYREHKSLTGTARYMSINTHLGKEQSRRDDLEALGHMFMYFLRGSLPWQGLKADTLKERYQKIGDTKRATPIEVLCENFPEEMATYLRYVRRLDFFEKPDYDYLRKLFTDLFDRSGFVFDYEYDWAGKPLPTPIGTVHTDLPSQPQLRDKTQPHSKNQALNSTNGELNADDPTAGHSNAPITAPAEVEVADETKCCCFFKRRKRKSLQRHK", "experiment": "Inhibition of human CSNK1G2 assessed as percent of control at 2000 nM by KINOMEscan assay relative to control", "design": "scale not given: the % may be the effect or the level left"}, "[24]": {"biological_target": "Activin receptor type-1-like (Homo sapiens) (UniProt P37023)", "experiment": "Inhibition of human ACVRL1 assessed as percent of control at 2000 nM by KINOMEscan assay relative to control", "design": "scale not given: the % may be the effect or the level left"}, "[25]": {"biological_target": "Protein kinase C iota type (Homo sapiens) (UniProt P41743)", "experiment": "Inhibition of human PRKCI assessed as percent of control at 2000 nM by KINOMEscan assay relative to control", "design": "scale not given: the % may be the effect or the level left"}, "[26]": {"biological_target": "Vascular endothelial growth factor receptor 2 (Homo sapiens) (UniProt P35968)", "sequence (P35968 whole entry)": "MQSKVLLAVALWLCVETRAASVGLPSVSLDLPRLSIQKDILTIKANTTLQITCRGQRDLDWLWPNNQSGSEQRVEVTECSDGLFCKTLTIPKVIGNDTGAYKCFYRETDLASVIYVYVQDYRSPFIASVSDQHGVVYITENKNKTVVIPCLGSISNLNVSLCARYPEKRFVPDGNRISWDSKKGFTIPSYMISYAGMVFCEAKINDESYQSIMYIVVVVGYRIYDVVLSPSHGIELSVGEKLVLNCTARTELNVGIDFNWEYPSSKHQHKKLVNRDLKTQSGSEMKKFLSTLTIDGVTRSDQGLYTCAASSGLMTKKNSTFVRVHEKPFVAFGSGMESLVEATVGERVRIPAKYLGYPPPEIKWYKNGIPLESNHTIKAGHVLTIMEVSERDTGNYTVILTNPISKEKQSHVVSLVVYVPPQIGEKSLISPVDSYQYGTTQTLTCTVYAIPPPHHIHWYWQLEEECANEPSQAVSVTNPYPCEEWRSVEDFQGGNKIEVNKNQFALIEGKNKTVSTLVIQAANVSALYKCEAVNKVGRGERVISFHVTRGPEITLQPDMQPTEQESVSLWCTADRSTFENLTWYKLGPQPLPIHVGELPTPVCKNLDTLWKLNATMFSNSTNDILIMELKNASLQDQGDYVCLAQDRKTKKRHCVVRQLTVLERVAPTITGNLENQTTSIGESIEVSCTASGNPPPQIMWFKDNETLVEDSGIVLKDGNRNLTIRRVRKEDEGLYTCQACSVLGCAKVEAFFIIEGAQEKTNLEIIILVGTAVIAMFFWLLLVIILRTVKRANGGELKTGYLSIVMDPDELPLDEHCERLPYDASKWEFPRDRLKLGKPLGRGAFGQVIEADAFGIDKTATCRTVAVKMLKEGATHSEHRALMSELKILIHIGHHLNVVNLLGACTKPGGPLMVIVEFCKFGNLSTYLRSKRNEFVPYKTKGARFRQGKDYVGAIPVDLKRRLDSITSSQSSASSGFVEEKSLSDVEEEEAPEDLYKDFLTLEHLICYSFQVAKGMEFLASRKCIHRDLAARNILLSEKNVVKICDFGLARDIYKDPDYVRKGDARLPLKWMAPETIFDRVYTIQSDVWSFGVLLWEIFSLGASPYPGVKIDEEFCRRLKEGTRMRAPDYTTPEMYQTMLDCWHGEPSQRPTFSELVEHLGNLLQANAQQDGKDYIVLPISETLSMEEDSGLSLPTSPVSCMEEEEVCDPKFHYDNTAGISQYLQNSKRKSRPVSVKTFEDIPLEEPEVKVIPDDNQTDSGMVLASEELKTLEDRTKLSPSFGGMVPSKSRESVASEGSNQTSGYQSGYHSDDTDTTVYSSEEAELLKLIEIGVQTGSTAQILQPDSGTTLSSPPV", "experiment": "Inhibition of human VEGFR2 assessed as percent of control at 2000 nM by KINOMEscan assay relative to control", "design": "scale not given: the % may be the effect or the level left"}, "Myc-CaP": {"test_system": "Myc-CaP", "experiment": "Antitumor activity against murine castration-resistant Myc-CaP cells xenografted in male FVB mouse assessed as suppression of tumor weight in presence of enzalutamide", "assay_type": "functional"}, "[27]": {"biological_target": "Hepatocyte growth factor receptor (Homo sapiens) (UniProt P08581)", "experiment": "Inhibition of human MET assessed as percent of control at 2000 nM by KINOMEscan assay relative to control", "design": "scale not given: the % may be the effect or the level left"}, "[28]": {"biological_target": "Receptor-type tyrosine-protein kinase FLT3 (Homo sapiens) (UniProt P36888)", "experiment": "Inhibition of human FLT3 assessed as percent of control at 2000 nM by KINOMEscan assay relative to control", "design": "scale not given: the % may be the effect or the level left"}, "[29]": {"test_system": "Epidermal growth factor receptor (Homo sapiens), P00533 [T790M]", "experiment": "Inhibition of human EGFR T790M mutant assessed as percent of control at 2000 nM by KINOMEscan assay relative to control", "design": "scale not given: the % may be the effect or the level left"}, "[30]": {"biological_target": "Tyrosine-protein kinase JAK1 (Homo sapiens) (UniProt P23458)", "experiment": "Inhibition of human JAK1 JH2 pseudokinase domain assessed as percent of control at 2000 nM by KINOMEscan assay relative to control", "design": "scale not given: the % may be the effect or the level left"}},
  "note": "“And” between values parts separate entries of the source, which are not always exact repeats. Equal entries are not always repeated. The source made the active and inactive calls. The calls are words filed in the database; no cut-off is given here.",
  "data": [
    {"smiles": "CN(C)C(=O)c1ccc(N2CCCN(c3ccnc4sc(C(N)=O)c(N)c34)CC2)cc1", "values": [
      {"measurement": "Activity", "setting": "[1]", "value": "100% and 87%"},
      {"measurement": "Activity", "setting": "[2]", "value": 100, "unit": "%"},
      {"measurement": "Activity", "setting": "[3]", "value": 100, "unit": "%"},
      {"measurement": "Activity", "setting": "[4]", "value": "96% and 95%"},
      {"measurement": "Activity", "setting": "[5]", "value": 97, "unit": "%"},
      {"measurement": "Activity", "setting": "[6]", "value": "95% and 100%"},
      {"measurement": "Activity", "setting": "[7]", "value": "90% and 87%"},
      {"measurement": "Activity", "setting": "[8]", "value": "80% and 96%"},
      {"measurement": "Activity", "setting": "[9]", "value": "88% and 100%"},
      {"measurement": "Activity", "setting": "[10]", "value": 100, "unit": "%"},
      {"measurement": "Activity", "setting": "[11]", "value": "84% and 69%"},
      {"measurement": "Activity", "setting": "[12]", "value": "100% and 97%"},
      {"measurement": "Activity", "setting": "[13]", "value": "97% and 100%"},
      {"measurement": "Activity", "setting": "[14]", "value": "96% and 79%"},
      {"measurement": "Activity", "setting": "[15]", "value": "93% and 100%"},
      {"measurement": "Activity", "setting": "[16]", "value": "88% and 94%"},
      {"measurement": "Activity", "setting": "[17]", "value": "96% and 91%"},
      {"measurement": "Activity", "setting": "[18]", "value": "68% and 67%"},
      {"measurement": "Activity", "setting": "[19]", "value": "97% and 85%"},
      {"measurement": "Activity", "setting": "[20]", "value": "100% and 96%"},
      {"measurement": "Activity", "setting": "[21]", "value": "80% and 95%"},
      {"measurement": "Activity", "setting": "[22]", "value": "100% and 89%"},
      {"measurement": "Activity", "setting": "[23]", "value": "77% and 69%"},
      {"measurement": "Activity", "setting": "[24]", "value": "99% and 100%"},
      {"measurement": "Activity", "setting": "[25]", "value": 100, "unit": "%"},
      {"measurement": "Activity", "setting": "[26]", "value": "67% and 84%"},
      {"measurement": "Activity", "setting": "Myc-CaP", "value": "Active"},
      {"measurement": "Activity", "setting": "[27]", "value": "99% and 92%"},
      {"measurement": "Activity", "setting": "[28]", "value": "94% and 86%"},
      {"measurement": "Activity", "setting": "[29]", "value": "98% and 87%"},
      {"measurement": "Activity", "setting": "[30]", "value": 89, "unit": "%"}
    ]}
  ]
}
